# Laboratory results as given in patent US11083696B2, “Dispersion anaesthetic device” (UNIVERSITY COLLEGE CARDIFF CONSULTANTS LIMITED, priority 2011, dated 2021).
# Key:
# [1] = test system: reaction to a standard surgical stimulus (skin incision); details: average adult male at age 40 years; 1 atmosphere; cited from earlier work
# [2] = Release into carrier gas, testing chamber 1 (60 ml glass jar, anaesthetic monitor); format: physicochemical; details: for Sevo % @ 30 s / time to 0% Sevo/s: HPFP only, No N2 flow
# Procedure: Specifically, a 60 ml glass jar fitted with septum, N2 inlet and 1 ml syringe (open to air). Typically tests used a 3 ml sample or equivalent with respect to anaesthetic content. Headspace concentrations were sampled from gas flow out (no recirculation) and measured with a standard anaesthetic monitor using a balloon to provide a nitrogen atmosphere or with or 2 L min^−1 N2 passed over or bubbled through sample;
# The formulations described in Tables 1-4 were tested using testing chamber 1, the experimental set-up for which is described in FIG. 1a, by addition of an appropriate quantity of formulation to a 60 ml glass jar fitted with septum, N2 inlet and (needle free) 1 ml syringe (open to air) via a plastic tube from within which the outflow gas was continuously sampled and monitored for anaesthetic concentration. Typically a 3 ml sample was used, or an equivalent amount with respect to anaesthetic content. A balloon was used to provide a nitrogen atmosphere with no flow-through, or a continuous flow of nitrogen as a carrier gas was passed over or bubbled through the sample at a controlled flow-rate. Headspace fluorocarbon concentrations were sampled from gas outflow (no recirculation) and measured using a standard anaesthetic monitor (Capnomac Ultima, Datex Instrumentarium Inc., Heslinki, Finland), monitoring on either sevoflurane or isoflurane settings, depending on the anaesthetic in the formulation.
# [3] = Gelation of liquid anaesthetics by gelators (heat-cool cycles, inversion); format: physicochemical
# Procedure: […] The solubility of the gelator at room temperature was observed by visual inspection, and samples subjected to a series of heat-cool cycles (hot ˜60° C., cold ˜5° C.) until solubility of the gelator was complete (or ceased to improve) and a clear gel was formed on cooling. A final heating cycle was carried out and the samples allowed to cool slowly to room temperature (cooling rate uncontrolled). […] Further inspection was carried out after 24 hours, and no difference in results was observed. On storage, sealed samples remain gelled for at least 12 months.
# A series of gelators were investigated with chain lengths […] corresponding to gelators G3-G8.
# [4] = 1st value column (amount equivalent to J1)
# [5] = 3rd value column (amount equivalent to J5)
# [6] = 1 wt % gelator after 2x heat-cool cycling
smiles,measurement,setting,value
FC(F)OC(F)C(F)(F)F (stereo not shown) [desflurane],MAC value of 1 (release level),[1],6 volume %
"FC(C(F)C(F)(F)C(F)(F)F)C(F)(F)F (stereo not shown) [HPFP, 2H, 3H-perfluoropentane]",Time to 0% sevoflurane/s,"[2]; 2 l min−1 N2 Over sample, 3 ml HPFP",220 s
same,sevoflurane % @ 30 s,"[2]; 2 l min−1 N2 Over sample, 3 ml HPFP, monitored as sevoflurane",1.6%
same,Time to 0% sevoflurane/s,"[2]; 2 l min−1 N2 through sample, 3 ml HPFP",<220 s
same,Sevo % @ 30 s,[2]; [4],1.9%
same,time to 0% Sevo/s,[2]; [4],135 s
same,Sevo % @ 30 s,[2]; 2nd value column (equivalent formulation unclear),2.0%
same,time to 0% Sevo/s,[2]; 2nd value column,140 s
same,Sevo % @ 30 s,[2]; [5],2.8%
same,time to 0% Sevo/s,[2]; [5],335 s
same,Sevo % @ 30 s,[2]; 4th value column (equivalent formulation unclear),2.9%
same,time to 0% Sevo/s,[2]; 4th value column,900 s
FC(F)OC(F)(F)C(F)Cl (stereo not shown) [enflurane],MAC value of 1 (release level),[1],1.6 volume %
FC(F)OC(Cl)C(F)(F)F (stereo not shown) [isoflurane],MAC value of 1 (release level),[1],1.2 volume %
FC(F)(F)C(Cl)Br (stereo not shown) [halothane],MAC value of 1 (release level),[1],0.76 volume %
CC(C)OC(=O)[C@@H](O)[C@H](O)CCCCCCCC[C@@H](O)[C@H](O)C(=O)OC(C)C (racemic) [G4],gelation of sevoflurane at lower gelator concentration,[3]; 0.1 wt % gelator,without success
same,Gel state of anaesthetic: Desfluorane,[3]; [6],Yes
same,Gel state of anaesthetic: Isoflurane,[3]; [6],No^†
same,Gel state of anaesthetic: Sevoflurane,[3]; [6],Good gels and Yes
same,gel state of isoflurane,[3]; 1.5 wt % gelator,partially gelled
same,gel state of isoflurane,"[3]; 2, 3, and 5 wt % gelator",gels and stable isoflurane gels were obtained
FCOC(C(F)(F)F)C(F)(F)F [sevoflurane],time of drop to zero anaesthetic concentration,"[2]; 3 ml sevoflurane, 2 L min^−1",15 to 16 min
same,plateau sevoflurane concentration in carrier gas,"[2]; 3 ml sevoflurane, 2 L min^−1 carrier gas",~13%
same,anaesthetic concentration in the carrier gas outflow stream,"[2]; first 10 minutes, 3 ml sevoflurane, 2 L min^−1 through headspace",13-15%
same,MAC value of 1 (release level),[1],2 volume %
